Results on 1 compound are retold here after BindingDB's records for doi:10.1016/j.bmcl.2003.10.062 (Technische Universitat Braunschweig, 2004).

In assay [1] the target is Cyclin-dependent kinase 1/G2/mitotic-specific cyclin-B (Marthasterias glacialis, UniProt P15206+Q9DGD3). In words: Kinase Inhibition Assay. The conditions noted are these: pH 7.2; 30 °C.
The target in assay [2] is T1, Cyclin-dependent kinase 5 activator 1 [99-307] (Homo sapiens, UniProt Q00535).
T1 construct: 99-307
In words: Kinase Inhibition Assay. Conditions: pH 7.2; 30 °C.

Chain of Cyclin-dependent kinase 1/G2/mitotic-specific cyclin-B (Q9DGD3 whole entry): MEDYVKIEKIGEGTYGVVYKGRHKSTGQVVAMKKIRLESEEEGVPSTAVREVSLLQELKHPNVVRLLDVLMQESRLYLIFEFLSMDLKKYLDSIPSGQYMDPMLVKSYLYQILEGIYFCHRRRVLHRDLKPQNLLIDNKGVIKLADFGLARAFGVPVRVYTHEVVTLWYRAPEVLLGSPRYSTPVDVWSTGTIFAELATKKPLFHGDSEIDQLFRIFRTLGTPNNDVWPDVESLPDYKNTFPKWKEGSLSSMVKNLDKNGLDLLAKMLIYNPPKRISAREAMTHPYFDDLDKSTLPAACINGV
Chain of Cyclin-dependent kinase 1/G2/mitotic-specific cyclin-B (P15206 whole entry): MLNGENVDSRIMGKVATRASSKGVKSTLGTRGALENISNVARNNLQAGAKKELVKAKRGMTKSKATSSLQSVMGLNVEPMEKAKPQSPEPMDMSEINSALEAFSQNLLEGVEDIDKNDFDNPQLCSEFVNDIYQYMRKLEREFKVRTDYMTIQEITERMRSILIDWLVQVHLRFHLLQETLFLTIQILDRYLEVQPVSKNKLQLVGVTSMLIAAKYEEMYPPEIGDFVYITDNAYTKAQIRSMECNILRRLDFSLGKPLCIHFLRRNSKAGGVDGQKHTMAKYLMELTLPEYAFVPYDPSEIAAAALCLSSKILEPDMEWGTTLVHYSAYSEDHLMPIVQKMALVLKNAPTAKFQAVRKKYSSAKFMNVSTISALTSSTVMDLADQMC
T1 sequence (Q15078 99-307): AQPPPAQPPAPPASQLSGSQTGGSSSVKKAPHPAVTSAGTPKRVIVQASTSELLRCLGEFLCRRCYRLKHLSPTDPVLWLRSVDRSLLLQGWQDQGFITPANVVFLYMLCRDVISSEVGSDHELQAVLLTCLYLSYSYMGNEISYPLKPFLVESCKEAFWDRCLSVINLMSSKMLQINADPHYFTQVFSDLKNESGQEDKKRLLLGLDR
T1 sequence (Q00535 whole entry): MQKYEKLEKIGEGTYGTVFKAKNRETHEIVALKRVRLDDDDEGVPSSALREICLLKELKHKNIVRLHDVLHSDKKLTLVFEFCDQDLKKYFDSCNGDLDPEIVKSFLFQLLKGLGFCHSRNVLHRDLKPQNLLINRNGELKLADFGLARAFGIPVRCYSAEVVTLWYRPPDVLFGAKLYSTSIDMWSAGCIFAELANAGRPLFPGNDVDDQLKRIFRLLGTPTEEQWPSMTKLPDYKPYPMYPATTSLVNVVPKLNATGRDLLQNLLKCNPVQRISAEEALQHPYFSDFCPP

In general, IC50 refers to the concentration needed to halve the response being measured. On to `O=Nc1c(C2C(=O)Nc3ccc(I)cc32)[nH]c2ccccc12` (configuration not stated) [3-[(2Z,3E)-3-(hydroxyimino)-2,3-dihydro-1H-indol-2-ylidene]-5-iodo-2,3-dihydro-1H-indol-2-one], for which the concentration for half-maximal inhibition (IC50) in assay [1] came out at 0.025 µM; in assay [2] it was 0.02 µM.
